Patent US8912194B2, “CDK inhibitor for the treatment of mesothelioma” (Nerviano Medical Sciences S.R.L., priority 2008, dated 2014)

How the values were obtained:
mesothelioma = details: single agent, mesothelioma patients; cited from earlier work
[1] = system: Rb phosphorylation, cyclin A and cdc6 expression in NCI-H28 cells; test: Western blot analysis of cell cycle related markers; assay type: cell-based; details: 1 and 3 μM, 24 hours, FIG. 2
Protocol: (§1) Treated cells were lysed by adding SDS sample buffer (0.125M Tris-HCl pH6.8, 5% SDS). Samples were heated to 95° C. for 5 minutes and then sonicated using an Ultrasonic 2000 ARTEK. Lysed cells were centrifuged at 13,000 RPM for 10 minutes. Protein quantification was determined using BCA buffer (Pierce) and a BSA standard curve. 20 μg protein extract per well were loaded and separated by SDS-PAGE gel 7.5-10% (PAGE-PLUS 40% concentrate AMRESCO). The gel was blotted onto nitrocellulose filters (Hybond Amersham) in a buffer containing 25 mM Tris HCl pH 8.3, 192 mM Glycine and 20% methanol. The filters were saturated in 5% low-fat milk in TBS containing 0.1% Tween 20 (TBS-T) for 2 hours at room temperature and than incubated overnight at 4° C. with the primary monoclonal followed by washes in TBS-T and incubation using a secondary anti mouse antibody. The bands were visualized using the “Super Signal West Pico” Pierce.

[2] = molecular target: Thropomyosin Receptor Kinase A (TRKA) (Homo sapiens, UniProt P04629); test: Scintillation Proximity Assay (SPA) for kinases; assay type: biochemical; details: read-out: IC50 (printed 1050) towards TRKA
Protocol: This assay allows measurement of the inhibition of the kinase activity of a specific enzyme obtained with test compound. Different kinases can be tested in parallel.
A biotinylated substrate is trans-phosphorylated by a specific kinase in the presence of ATP including a γ33-ATP tracer. At the end of the reaction the phosphorylated substrate is then captured using Streptavidin-coated SPA beads. A dense 5M CsCl solution is added and the mixture is incubated for four hours. This causes the SPA beads to float to the top of the CsCl solution containing the unincorporated radiolabelled ATP.
The extent of phosphorylation is measured using a β-counter.

[3] = system: NCI-H28 mesothelioma cell line; test: Inhibition of cell proliferation (cellular ATP monitoring); assay type: cell-based; details: Homo sapiens; NCI-H28, 72 hours after treatment
Protocol: (§2) MSTO-211H, NCI-H2052 and NCI-H28 mesothelioma cell lines were cultured in RPMI 1640 added with 10% FCS, 2 mM glutamine, 1 mM sodium pyruvate and 10 mM HEPES. For all the experiments cells were seeded at the density of 1×10^4/cm^2, the day after treatment with the compound for the prescribed duration and then collected at the reported times.
(§3) Cells were washed and counted 72 hours after the treatment. Cell proliferation was determined by a cellular adenosine triphosphate monitoring system. Cell proliferation was compared to control cells. The concentration inhibiting cell proliferation by 50% (IC50) was calculated.

[4] = system: MSTO-211H mesothelioma cell line; test: as above; assay type: cell-based; details: Homo sapiens, 72 hours after treatment
Protocol: as §2, §3

[5] = system: NCI-H2052 mesothelioma cell line; test: as above; assay type: cell-based; details: Homo sapiens; NCI-H2052, 72 hours after treatment
Protocol: as §2, §3

[6] = system: cell cycle related markers in mesothelioma cell lines; test: Western blot analysis of cell cycle related markers, all cell lines; assay type: cell-based; details: all mesothelioma cell lines tested
Protocol: as §1

[7] = system: phosphorylation of AKT, S6 and MAPK in NCI-H28 cells; test: Western blot analysis of tyrosine kinase growth factor receptor mediated pathways; assay type: cell-based; details: 1 and 3 μM, FIG. 2
Protocol: as §1

[8] = system: mesothelioma cells (MSTO-211H, NCI-H2052, NCI-H28); test: Inhibition of cell proliferation, summary over all tested mesothelioma cells; assay type: cell-based; details: all the tested mesothelioma cells, 72 hours; read-out: IC50 range, inhibition of proliferation
Protocol: as §2, §3

[9] = system: NCI-H28 mesothelioma cell line; test: Analysis of cell cycle progression and apoptosis induction (cytofluorimetry, propidium iodide); assay type: cell-based; details: NCI-H28, 24 hours after treatment, cytofluorimetric analysis
Protocol: (§4) MSTO-211H, NCI-H2052 and NCI-H28 mesothelioma cell lines were cultured in RPMI 1640 added with 10% FCS, 2 mM glutamine, 1 mM sodium pyruvate and 10 mM HEPES. For all the experiments cells were seeded at the density of 1×10^4/cm^2, the day after treatment with the compound for the prescribed duration and then collected at the reported times. Cells were washed 24 hours after the treatment, fixed with cold methanol 70% and stored at −20° C. Fixed cells were washed with PBS to remove methanol and were stained with 25 μg/mL of propidium iodide, 5 μg/mL of RNase, and 0.125 μg/mL of Nonidet P 40. Cells were kept at room temperature for 60 minutes in the dark and were analyzed by BD FACSCalibur™ system interfaced to a Macintosh G4 computer with BD CellQuest™ 3.3 software. All doublets or aggregates were removed during analysis by an appropriate gate on an FL3-A/FL3-W dot plot and DNA content analysis was performed in ≧10,000 gated cells. DNA histograms (shown in FIG. 1) were analyzed using ModFit LT™

[10] = system: MSTO-211H mesothelioma cell line; test: as above; assay type: cell-based
Protocol: as §4

[11] = system: NCI-H2052 mesothelioma cell line; test: as above; assay type: cell-based; details: NCI-H2052, 24 hours after treatment, cytofluorimetric analysis
Protocol: as §4

Thropomyosin Receptor Kinase A (TRKA), sequence (P04629 33-796): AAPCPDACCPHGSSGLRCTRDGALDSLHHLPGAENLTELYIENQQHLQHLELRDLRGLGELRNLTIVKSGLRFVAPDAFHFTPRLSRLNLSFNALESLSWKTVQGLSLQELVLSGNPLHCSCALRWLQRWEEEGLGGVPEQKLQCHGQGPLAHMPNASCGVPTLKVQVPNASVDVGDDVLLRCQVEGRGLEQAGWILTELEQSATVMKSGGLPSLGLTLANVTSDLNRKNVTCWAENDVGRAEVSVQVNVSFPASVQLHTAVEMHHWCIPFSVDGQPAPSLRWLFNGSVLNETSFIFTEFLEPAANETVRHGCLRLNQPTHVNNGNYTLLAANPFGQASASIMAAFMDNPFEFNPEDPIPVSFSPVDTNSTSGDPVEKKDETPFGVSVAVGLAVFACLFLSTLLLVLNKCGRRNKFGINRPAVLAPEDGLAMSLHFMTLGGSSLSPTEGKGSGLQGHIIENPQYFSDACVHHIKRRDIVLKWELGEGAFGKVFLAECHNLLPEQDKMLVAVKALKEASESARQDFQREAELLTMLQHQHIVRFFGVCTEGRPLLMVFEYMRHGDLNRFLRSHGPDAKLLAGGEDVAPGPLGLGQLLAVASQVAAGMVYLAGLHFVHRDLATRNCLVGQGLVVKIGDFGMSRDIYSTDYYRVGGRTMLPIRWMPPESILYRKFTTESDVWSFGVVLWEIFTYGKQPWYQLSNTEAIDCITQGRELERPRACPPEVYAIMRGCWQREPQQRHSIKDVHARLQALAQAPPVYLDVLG

Row | SMILES | median overall survival (mesothelioma) [months] | response rate (mesothelioma) [%] | Rb phosphorylation ([1]; NCI-H28 cells (mutated in p16/CDKN2A)) | cdc6 expression ([1]; NCI-H28 cells) | cyclin A expression ([1]; NCI-H28 cells) | IC50 [2] [nM] | IC50 [3] [µM] | IC50 [4] [µM] | IC50 [5] [µM] | cell cycle related markers [6] | phosphorylation of AKT [7] | phosphorylation of MAPK [7] | phosphorylation of S6 [7] | IC50 [8] [nM] | Sub G1 % (percentage of cells with a sub G1 DNA content, apoptosis) [9] [%] | Effect on cell cycle progression ([10]; 1 μM, 24 hours, FIG. 1) | Sub G1 peak (induction of apoptosis) ([10]; 3 μM, 24 hours, FIG. 1) | Sub G1 % (percentage of cells with a sub G1 DNA content, apoptosis) ([10]; 24 hours after treatment, cytofluorimetric analysis) [%] | Sub G1 % (percentage of cells with a sub G1 DNA content, apoptosis) [11] [%]
1 | Nc1nc2[nH]cc(CCc3ccc(C(=O)N[C@@H](CCC(=O)O)C(=O)O)cc3)c2c(=O)[nH]1 [pemetrexed] | 10.7 | 14.1 |  |  |  |  |  |  |  |  |  |  |  |  |  |  |  |  | 
2 | CNC(=O)c1nn(C)c2c1C(C)(C)Cc1cnc(Nc3ccc(N4CCN(C)CC4)cc3)nc1-2 [compound of formula (I), 8-[4-(4-methyl-piperazin-1-yl)-phenylamino]-1,4,4-trimethyl-4,5-dihydro-1H-pyrazolo[4,3-h]quinazoline-3-carboxylic acid methylamide] |  |  | strong inhibition | strong inhibition | strong inhibition | 53 | 1.56 ± 0.52 | 0.23 ± 0.1 | 0.74 ± 0.37 | decrease | Inhibition in phosphorylation | Inhibition in phosphorylation | Inhibition in phosphorylation | 230 to 1560 | 5 | G1 block | increase of the sub G1 peak | 24 | 14
